Broadly, the IC50 is the concentration that inhibits the measured activity by half.

Data on 22 molecules can be found in patent publication US8754100B2, “Nitrogen-containing fused heterocyclic compounds and their use as beta amyloid production inhibitors” (EISAI R&D Management Co., Ltd., priority 2009, dated 2014).

In the assay the test system is Aβ42 production in rat primary neuronal culture. Description: Quantification of Aβ peptide (Aβ42 ELISA) in culture of neurons from rat fetus brain. Type of assay: cell-based. Conditions: Rattus norvegicus, Neuron, 72 h; primary neuronal culture from cerebral cortex of embryonic day 18 Wistar rats; cultured three days after addition of compound; Aβ42 in medium by ELISA; read-out: Aβ42 Production reducing action IC50. The procedure: Quantification of Aβ Peptide in Culture of Neurons from Rat Fetus Brain
(1) Rat Primary Neuronal Culture
Primary neuronal cultures were prepared from the cerebral cortex of embryonic day 18 Wistar rats (Charles River Japan, Yokohama, Japan). Specifically, the embryos were aseptically removed from pregnant rats under ether anesthesia. The brain was isolated from the embryo and immersed in an ice-cold L-15 medium (Invitrogen Corp. Cat #11415-064, Carlsbad, Calif., USA, or SIGMA L1518, for example). The cerebral cortex was collected from the isolated brain under a stereoscopic microscope. The cerebral cortex fragments collected were enzymatically treated in an enzyme solution containing 0.25% trypsin (Invitrogen Corp. Cat #15050-065, Carlsbad, Calif., USA) and 0.01% DNase (Sigma D5025, St. Louis, Mo., USA) at 37° C. for 30 minutes to disperse the cells. Here, the enzymatic reaction was stopped by adding inactivated horse serum to the solution. The enzymatically treated solution was centrifuged at 1,500 rpm for five minutes to remove the supernatant 5 to 10 ml of a medium was added to the resulting cell mass. Neurobasal medium (Invitrogen Corp. Cat #21103-049, Carlsbad, Calif., USA) supplemented with 2% B27 supplement (Invitrogen Corp. Cat #17504-044, Carlsbad, Calif., USA), 25 μM 2-mercaptoethanol (2-ME, WAKO Cat #139-06861, Osaka, Japan), 0.5 mM L-glutamine (Invitrogen Corp. Cat #25030-081, Carlsbad, Calif., USA), and Antibiotics-Antimycotics (Invitrogen Corp. Cat #15240-062, Carlsbad, Calif., USA) was used as the medium (Neurobasal/B27/2-ME). However, the above Neurobasal medium not supplemented with 2-ME (Neurobasal/B27) was used for the assay. The cells were redispersed by mild pipetting of the cell mass to which the medium was added. The cell dispersion was filtered through a 40-μm nylon mesh (Cell Strainer, Cat #35-2340, Becton Dickinson Labware, Franklin Lakes, N.J., USA) to remove the remaining cell mass, and thus a neuronal cell suspension was obtained. The neuronal cell suspension was diluted with the medium and then plated in a volume of 100 μl/well at an initial cell density of 5×10^5 cells/cm^2 in a 96-well polystyrene culture plate pre-coated with poly-L or D-lysine (Falcon Cat #35-3075, Becton Dickinson Labware, Franklin Lakes, N.J., USA coated with poly-L-lysine using the method shown below, or BIOCOAT™ cell environments Poly-D-lysine cell ware 96-well plate, Cat #35-6461, Becton Dickinson Labware, Franklin Lakes, N.J., USA). Poly-L-lysine coating was carried out as follows. 100 μg/ml of a poly-L-lysine (SIGMA P2636, St. Louis, Mo., USA) solution was aseptically prepared with a 0.15 M borate buffer (pH 8.5). […] Thereafter, the coated 96-well polystyrene culture plate was washed with sterile water four or more times, and then dried or rinsed with sterile PBS or medium, and used for cell plating. The plated cells were cultured in the culture plate at 37° C. in 5% CO2-95% air for one day. Then, the total amount of the medium was replaced with a fresh Neurobasal/B27/2-ME medium, and then the cells were cultured for further three days.
The drug was added to the culture plate on Day 4 of culture as follows. The total amount of the medium was removed from the wells, and 180 μl/well of Neurobasal medium not containing 2-ME and containing 2% B-27 (Neurobasal/B27) was added thereto. A solution of the test compound in dimethyl sulfoxide (hereinafter abbreviated as DMSO) was diluted with Neurobasal/B27 to a concentration 10-fold higher than the final concentration. 20 μl/well of the dilution was added to and sufficiently mixed with the medium. The final DMSO concentration was 1% or less. Only DMSO was added to the control group.
The cells were cultured for three days after addition of the compound, and the total amount of the medium was collected. The resulting medium was used as an ELISA sample. […]
On the technique in general: ELISA stands for enzyme-linked immunosorbent assay.
As for `COc1nc(-c2cn3c(n2)[C@H](c2cccc(C(C)(C)C)c2OC)CCC3)ccc1-n1cnc(C)c1` [Example 239], the IC50 came out at 12 nM.
The result for `COc1cc([C@@H]2CCCn3cc(-c4ccc(-n5cnc(C)c5)c(OC)n4)nc32)ccc1C(C)(C)C` [Example 240] reads 5 nM; that for `COc1nc(-c2cn3c(n2)[C@H](c2ccc(C(C)(C)C)cc2)CCC3)ccc1-n1cnc(C)c1` [Example 242], 9 nM; that for `COc1nc(-c2cn3c(n2)[C@H](c2cc(C(C)(C)C#N)ccc2Cl)CCC3)ccc1-n1cnc(C)c1` [Example 245], 16 nM.
For the molecule `COc1nc(-c2cn3c(n2)[C@H](c2ccc(C(C)(C)C#N)cc2Cl)CCC3)ccc1-n1cnc(C)c1` [Example 246], the IC50 worked out at 55 nM.
The figure for `COc1nc(-c2cn3c(n2)[C@H](c2cc(Br)ccc2C(F)(F)F)CCC3)ccc1-n1cnc(C)c1` [Example 250] is 13 nM.
The result for `COc1nc(-c2nc3n(n2)CCC[C@@H]3c2cc(C(C)(C)OC)ccc2Cl)ccc1-n1cnc(C)c1` [Example 267, (−)-2-[6-methoxy-5-(4-methyl-1H-imidazol-1-yl)pyridin-2-yl]-8-(2-chloro-5-(1-methoxy-1-methylethyl)phenyl)-5,6,7,8-tetrahydro[1,2,4]triazolo[1,5-a]pyridine] reads 29 nM; that for `COc1nc(-c2nc3n(n2)CCC[C@H]3c2cc(N3CCCCC3)ccc2Br)ccc1-n1cnc(C)c1` [Example 279], 8 nM; that for `COc1nc(-c2nc3n(n2)CCC[C@H]3c2ccc(Cl)c(N3CCCCC3)c2)ccc1-n1cnc(C)c1` [Example 287], 22 nM.
The result for `COc1nc(-c2nc3n(n2)CCC[C@H]3c2ccc(N3CCCCC3)cc2Cl)ccc1-n1cnc(C)c1` [Example 295] reads 33 nM; that for `COc1nc(-c2nc3n(n2)CCC[C@H]3c2ccc(N(CC3CC3)CC(F)(F)F)cc2Cl)ccc1-n1cnc(C)c1` [Example 307], 13 nM.
In the case of `COc1nc(-c2nc3n(n2)CCC[C@H]3c2ccc(N(CC(F)(F)F)C3CC3)cc2Cl)ccc1-n1cnc(C)c1` [Example 309], the IC50 stood at 14 nM.
The figure for `COc1nc(-c2nc3n(n2)CCC[C@H]3c2cc(N3CCC(C)CC3)ccc2Cl)ccc1-n1cnc(C)c1` [Example 311] is 12 nM; for `COc1nc(-c2nc3n(n2)CCC[C@H]3c2cc(N(CC3CC3)CC(F)(F)F)ccc2Cl)ccc1-n1cnc(C)c1` [Example 313] it is 6 nM.
The result for `COc1nc(-c2nc3n(n2)CCC[C@H]3c2cc(N(CC3CC3)CC3CC3)ccc2Cl)ccc1-n1cnc(C)c1` [Example 315] reads 4 nM; that for `COc1nc(-c2nc3n(n2)CCC[C@H]3c2cc(N3CCC(C(F)(F)F)CC3)ccc2Cl)ccc1-n1cnc(C)c1` [Example 317], 15 nM; that for `COc1nc(-c2nc3n(n2)CCC[C@H]3c2cc(N3CC(C)CC(C)C3)ccc2Cl)ccc1-n1cnc(C)c1` (stereo partly shown) [Example 319], 10 nM.
For the molecule `COc1ccc(C(C)(C)C(F)(F)F)cc1[C@@H]1CCCn2nc(-c3ccc(-n4cnc(C)c4)c(OC)n3)nc21` [Example 331], the IC50 came out at 12 nM.
The result for `COc1nc(-c2nc3n(n2)CCC[C@H]3c2ccc3c(c2)C(C)(C)CN3CC(F)(F)F)ccc1-n1cnc(C)c1` [Example 337] reads 13 nM; that for `COc1nc(-c2nc3n(n2)CCC[C@H]3c2cc(N3CCCC3)ccc2Cl)ccc1-n1cnc(C)c1` [Example 347], 30 nM; that for `COc1nc(-c2nc3n(n2)CCC[C@H]3c2cc(-c3ccccc3)ccc2Cl)ccc1-n1cnc(C)c1` [Example 359], 16 nM.
The result for `COc1nc(-c2nc3n(n2)CCC[C@H]3c2ccc(N3CCCCCC3)cc2)ccc1-n1cnc(C)c1` [Example 383] reads 21 nM.
